Reference: ChEMBL document CHEMBL4330083, “Synthesis and evaluation of isoprenylation-resveratrol dimer derivatives against Alzheimer's disease” (Eur J Med Chem, 2019)

Tests used:
Assay type in all cases: functional
PC-12 [1] = test: Neuroprotection against H2O2-induced oxidative damage in rat PC12 cells assessed as early apoptotic cells at 10 uM after 24 hrs in presence of H2O2 by annexin V-FITC/propidium iodide staining based flow cytometric analysis (reference value: 2.1%)
PC-12 [2] = test: Neuroprotection against H2O2-induced oxidative damage in rat PC12 cells assessed as mitochondrial membrane potential at 10 uM after 24 hrs in presence of H2O2 by Jc-1 staining based flow cytometric analysis (reference value: 16.35 +/- 3.19%)
[3] = Neuroprotection against H2O2-induced inflammation in […] cells assessed as reduction in ROS production by measuring mean fluorescence intensity at 10 uM after 18 hrs by DCFH-DA staining-based flow cytometric analysis (reference value: 11273)
PC-12 [4] = test: Neuroprotection against H2O2-induced oxidative damage in rat PC12 cells assessed as early apoptotic cells at 2.5 uM after 24 hrs in presence of H2O2 by annexin V-FITC/propidium iodide staining based flow cytometric analysis (reference value: 2.1%)
[5] = Neuroprotection against LPS-induced inflammation in […] cells assessed as reduction in ROS production by measuring mean fluorescence intensity at 2.5 uM after 18 hrs by DCFH-DA staining-based flow cytometric analysis (reference value: 70385)
PC-12 [6] = test: (§1) Neuroprotection against H2O2-induced oxidative damage in rat PC12 cells assessed as reduction in ROS production by measuring mean fluorescence intensity at 5 uM preincubated for 4 hrs followed by H2O2 addition measured after 24 hrs by DCFH-DA staining-based flow cytometric analysis (reference value: 82616)
[7] = Neuroprotection against LPS-induced inflammation in […] cells assessed as reduction in ROS production by measuring mean fluorescence intensity at 5 uM after 18 hrs by DCFH-DA staining-based flow cytometric analysis (reference value: 70385)
[8] = Neuroprotection against LPS-induced inflammation in […] cells assessed as reduction in ROS production by measuring mean fluorescence intensity at 10 uM after 18 hrs by DCFH-DA staining-based flow cytometric analysis (reference value: 70385)
PC-12 [9] = test: as §1, with “2.5” for “5”
PC-12 [10] = test: Neuroprotection against H2O2-induced oxidative damage in rat PC12 cells assessed as necrotic cells at 2.5 uM after 24 hrs in presence of H2O2 by annexin V-FITC/propidium iodide staining based flow cytometric analysis (reference value: 4.5%)
[11] = Neuroprotection against H2O2-induced inflammation in […] cells assessed as reduction in ROS production by measuring mean fluorescence intensity at 2.5 uM after 18 hrs by DCFH-DA staining-based flow cytometric analysis (reference value: 11273)
PC-12 [12] = test: Neuroprotection against H2O2-induced oxidative damage in rat PC12 cells assessed as late apoptotic cells at 10 uM after 24 hrs in presence of H2O2 by annexin V-FITC/propidium iodide staining based flow cytometric analysis (reference value: 29.8%)
PC-12 [13] = test: Neuroprotection against H2O2-induced oxidative damage in rat PC12 cells assessed as intracellular Ca2+ level by measuring mean fluorescence intensity at 2.5 uM after 24 hrs in presence of H2O2 by Fluo-3/AM staining based flow cytometric analysis (reference value: 43156)
PC-12 [14] = test: Neuroprotection against H2O2-induced oxidative damage in rat PC12 cells assessed as necrotic cells at 10 uM after 24 hrs in presence of H2O2 by annexin V-FITC/propidium iodide staining based flow cytometric analysis (reference value: 4.5%)
PC-12 [15] = test: Neuroprotection against H2O2-induced oxidative damage in rat PC12 cells assessed as intracellular Ca2+ level by measuring mean fluorescence intensity at 10 uM after 24 hrs in presence of H2O2 by Fluo-3/AM staining based flow cytometric analysis (reference value: 43156)
[16] = Neuroprotection against LPS-induced inflammation in human BV2 cells assessed as reduction in ROS production by measuring mean fluorescence intensity at 10 uM after 18 hrs by DCFH-DA staining-based flow cytometric analysis (reference value: 56792)
PC-12 [17] = test: Neuroprotection against H2O2-induced oxidative damage in rat PC12 cells assessed as viable cells at 10 uM after 24 hrs in presence of H2O2 by annexin V-FITC/propidium iodide staining based flow cytometric analysis (reference value: 64.1%); conditions: PC-12, 24 h, read-out: Activity
PC-12 [18] = test: as §1, with “2.5” for “5”, “102489)” for “82616)”
PC-12 [19] = test: as §1, with “102489)” for “82616)”
PC-12 [20] = test: Neuroprotection against H2O2-induced oxidative damage in rat PC12 cells assessed as intracellular Ca2+ level by measuring mean fluorescence intensity at 10 uM after 24 hrs in presence of H2O2 by Fluo-3/AM staining based flow cytometric analysis (reference value: 51697)
PC-12 [21] = test: Neuroprotection against H2O2-induced oxidative damage in rat PC12 cells assessed as intracellular Ca2+ level by measuring mean fluorescence intensity at 2.5 uM after 24 hrs in presence of H2O2 by Fluo-3/AM staining based flow cytometric analysis (reference value: 51697)
PC-12 [22] = test: Neuroprotection against H2O2-induced oxidative damage in rat PC12 cells assessed as late apoptotic cells at 5 uM after 24 hrs in presence of H2O2 by annexin V-FITC/propidium iodide staining based flow cytometric analysis (reference value: 6.2%)
[23] = Neuroprotection against H2O2-induced inflammation in […] cells assessed as reduction in ROS production by measuring mean fluorescence intensity at 10 uM after 18 hrs by DCFH-DA staining-based flow cytometric analysis (reference value: 20004)
PC-12 [24] = test: Neuroprotection against H2O2-induced oxidative damage in rat PC12 cells assessed as necrotic cells at 2.5 uM after 24 hrs in presence of H2O2 by annexin V-FITC/propidium iodide staining based flow cytometric analysis (reference value: 0.4%)
PC-12 [25] = test: as §1, with “10” for “5”, “102489)” for “82616)”
PC-12 [26] = test: Neuroprotection against H2O2-induced oxidative damage in rat PC12 cells assessed as early apoptotic cells at 5 uM after 24 hrs in presence of H2O2 by annexin V-FITC/propidium iodide staining based flow cytometric analysis (reference value: 29.3%)
PC-12 [27] = test: Neuroprotection against H2O2-induced oxidative damage in rat PC12 cells assessed as early apoptotic cells at 2.5 uM after 24 hrs in presence of H2O2 by annexin V-FITC/propidium iodide staining based flow cytometric analysis (reference value: 29.3%)
[28] = Neuroprotection against LPS-induced inflammation in […] cells assessed as reduction in ROS production by measuring mean fluorescence intensity at 5 uM after 18 hrs by DCFH-DA staining-based flow cytometric analysis (reference value: 56792)

Q: Which results are given for `CC(C)=CCc1c(O)cc(/C=C/c2ccc3c(c2)[C@H](c2cc(O)c4c(c2)OC(C)(C)CC4)[C@@H](c2ccc(O)cc2)O3)cc1O`?
A: Activity (PC-12 [1]): 1.9%; Activity (PC-12 [2]): 83.23%; Flu intensity [3]: 7407; Activity (PC-12 [4]): 2.1%; Flu intensity [5]: 55345; Flu intensity (PC-12 [6]): 58560; Flu intensity [7]: 51980; Flu intensity [8]: 43811; Flu intensity (PC-12 [9]): 61043; Activity (PC-12 [10]): 4.8%; Flu intensity [11]: 11086; Activity (PC-12 [12]): 4.8%; Flu intensity (PC-12 [13]): 40869; Activity (PC-12 [14]): 0.6%; Flu intensity (PC-12 [15]): 35826

Q: Which Flu intensity [16] does the source give for `CC(C)=CCc1c(O)cc(/C=C/c2ccc3c(c2)[C@H](c2cc(O)c(CC=C(C)C)c(O)c2)[C@@H](c2ccc(O)cc2)O3)cc1O` here?
A: The Flu intensity was 24076.

Q: What about the viability at 10 µM (PC-12 [17]) of the same compound?
A: The viability at 10 µM was 88.4%.

Q: What about the Flu intensity (PC-12 [18]) of the same compound?
A: Its Flu intensity is 97612.

Q: What about the Flu intensity (PC-12 [19]) of the same compound?
A: The Flu intensity was 85417.

Q: What about the Flu intensity (PC-12 [20]) of the same compound?
A: Its Flu intensity is 25664.

Q: What about the Flu intensity (PC-12 [21]) of the same compound?
A: Its Flu intensity is 40059.

Q: What about the Activity (PC-12 [22]) of the same compound?
A: The Activity was 4%.

Q: And the Flu intensity [23]?
A: The Flu intensity was 8220.

Q: And the Activity (PC-12 [24])?
A: Its Activity is 0.4%.

Q: And the Flu intensity (PC-12 [25])?
A: Its Flu intensity is 25470.

Q: What about the Activity (PC-12 [26]) of the same compound?
A: The Activity was 13.1%.

Q: What about the Activity (PC-12 [27]) of the same compound?
A: The Activity was 19.4%.

Q: What about the Flu intensity [28] of the same compound?
A: The Flu intensity was 28450.
